Source: a compilation of properties of binary mixtures (doi:10.1016/j.fluid.2020.112621)

Test: xn = mol fraction of the nth substance listed
Conditions: 101 kPa

CCCCC(=O)[O-].CC[NH+](CC)CCO + CCCC[n+]1ccn(C)c1.COP(=O)([O-])OC
viscosity (278.15 K, x1 = 0.1018): 2088 mPa·s
viscosity (278.15 K, x1 = 0.1952): 1185.7 mPa·s
viscosity (278.15 K, x1 = 0.3029): 676 mPa·s
viscosity (278.15 K, x1 = 0.4003): 440 mPa·s
viscosity (278.15 K, x1 = 0.4973): 318.2 mPa·s
viscosity (278.15 K, x1 = 0.5989): 250.8 mPa·s
viscosity (278.15 K, x1 = 0.7978): 190.6 mPa·s
viscosity (278.15 K, x1 = 0.8868): 171.4 mPa·s
viscosity (278.15 K, x1 = 1): 156.6 mPa·s
viscosity (283.15 K, x1 = 0.1018): 1327.5 mPa·s
viscosity (283.15 K, x1 = 0.1952): 786 mPa·s
viscosity (283.15 K, x1 = 0.3029): 464 mPa·s
viscosity (283.15 K, x1 = 0.4003): 309 mPa·s
viscosity (283.15 K, x1 = 0.5989): 180.3 mPa·s
viscosity (283.15 K, x1 = 0.6984): 156.2 mPa·s
viscosity (283.15 K, x1 = 0.7978): 137.6 mPa·s
viscosity (283.15 K, x1 = 0.8868): 123.9 mPa·s
viscosity (283.15 K, x1 = 1): 113.1 mPa·s
viscosity (288.15 K, x1 = 0.1952): 536 mPa·s
viscosity (288.15 K, x1 = 0.3029): 327.1 mPa·s
viscosity (288.15 K, x1 = 0.4003): 222.5 mPa·s
viscosity (288.15 K, x1 = 0.4973): 165.5 mPa·s
viscosity (288.15 K, x1 = 0.5989): 132.6 mPa·s
viscosity (288.15 K, x1 = 0.6984): 115 mPa·s
viscosity (288.15 K, x1 = 0.7978): 101.5 mPa·s
viscosity (288.15 K, x1 = 0.8868): 91.4 mPa·s
viscosity (288.15 K, x1 = 1): 83.2 mPa·s
viscosity (293.15 K, x1 = 0.1952): 376 mPa·s
viscosity (293.15 K, x1 = 0.3029): 236.3 mPa·s
viscosity (293.15 K, x1 = 0.4003): 163.8 mPa·s
viscosity (293.15 K, x1 = 0.4973): 123.3 mPa·s
viscosity (293.15 K, x1 = 0.5989): 99.4 mPa·s
viscosity (293.15 K, x1 = 0.6984): 86.4 mPa·s
viscosity (293.15 K, x1 = 0.7978): 76.3 mPa·s
viscosity (293.15 K, x1 = 0.8868): 68.8 mPa·s
viscosity (293.15 K, x1 = 1): 62.4 mPa·s
viscosity (298.15 K, x1 = 0.1018): 416 mPa·s
viscosity (298.15 K, x1 = 0.3029): 174.8 mPa·s
viscosity (298.15 K, x1 = 0.4003): 123.2 mPa·s
viscosity (298.15 K, x1 = 0.4973): 93.8 mPa·s
viscosity (298.15 K, x1 = 0.6984): 66.1 mPa·s
viscosity (298.15 K, x1 = 0.8868): 52.75 mPa·s
viscosity (298.15 K, x1 = 1): 47.75 mPa·s
viscosity (303.15 K, x1 = 0.1018): 298.4 mPa·s
viscosity (303.15 K, x1 = 0.4003): 94.6 mPa·s
viscosity (303.15 K, x1 = 0.4973): 72.7 mPa·s
viscosity (303.15 K, x1 = 0.5989): 59.21 mPa·s
viscosity (303.15 K, x1 = 0.6984): 51.52 mPa·s
viscosity (303.15 K, x1 = 0.7978): 45.65 mPa·s
viscosity (303.15 K, x1 = 0.8868): 41.15 mPa·s
viscosity (308.15 K, x1 = 0.1018): 219.3 mPa·s
viscosity (308.15 K, x1 = 0.3029): 101.6 mPa·s
viscosity (308.15 K, x1 = 0.4003): 73.8 mPa·s
viscosity (308.15 K, x1 = 0.4973): 57.24 mPa·s
viscosity (308.15 K, x1 = 0.6984): 40.78 mPa·s
viscosity (308.15 K, x1 = 0.7978): 36.17 mPa·s
viscosity (308.15 K, x1 = 0.8868): 32.59 mPa·s
viscosity (308.15 K, x1 = 1): 29.31 mPa·s
viscosity (313.15 K, x1 = 0.1018): 164.7 mPa·s
viscosity (313.15 K, x1 = 0.1952): 115.4 mPa·s
viscosity (313.15 K, x1 = 0.4973): 45.77 mPa·s
viscosity (313.15 K, x1 = 0.6984): 32.76 mPa·s
viscosity (313.15 K, x1 = 0.7978): 29.07 mPa·s
viscosity (313.15 K, x1 = 1): 23.48 mPa·s
viscosity (318.15 K, x1 = 0.1018): 126 mPa·s
viscosity (318.15 K, x1 = 0.3029): 63.2 mPa·s
viscosity (318.15 K, x1 = 0.4973): 37.12 mPa·s
viscosity (318.15 K, x1 = 0.7978): 23.66 mPa·s
viscosity (318.15 K, x1 = 0.8868): 21.33 mPa·s
viscosity (318.15 K, x1 = 1): 19.07 mPa·s
viscosity (323.15 K, x1 = 0.1018): 98.1 mPa·s
viscosity (323.15 K, x1 = 0.1952): 71.4 mPa·s
viscosity (323.15 K, x1 = 0.3029): 50.96 mPa·s
viscosity (323.15 K, x1 = 0.4003): 38.46 mPa·s
viscosity (323.15 K, x1 = 0.4973): 30.5 mPa·s
viscosity (323.15 K, x1 = 0.5989): 25.23 mPa·s
viscosity (323.15 K, x1 = 0.6984): 21.99 mPa·s
viscosity (323.15 K, x1 = 0.8868): 17.59 mPa·s
viscosity (323.15 K, x1 = 1): 15.68 mPa·s
viscosity (328.15 K, x1 = 0.1018): 77.7 mPa·s
viscosity (328.15 K, x1 = 0.1952): 57.48 mPa·s
viscosity (328.15 K, x1 = 0.3029): 41.66 mPa·s
viscosity (328.15 K, x1 = 0.4003): 31.79 mPa·s
viscosity (328.15 K, x1 = 0.7978): 16.26 mPa·s
viscosity (328.15 K, x1 = 0.8868): 14.66 mPa·s
viscosity (328.15 K, x1 = 1): 13.03 mPa·s
viscosity (333.15 K, x1 = 0.1952): 46.87 mPa·s
viscosity (333.15 K, x1 = 0.4973): 21.3 mPa·s
viscosity (333.15 K, x1 = 0.5989): 17.73 mPa·s
viscosity (333.15 K, x1 = 0.6984): 15.45 mPa·s
viscosity (333.15 K, x1 = 0.7978): 13.7 mPa·s
viscosity (338.15 K, x1 = 0.1018): 50.75 mPa·s
viscosity (338.15 K, x1 = 0.3029): 28.83 mPa·s
viscosity (338.15 K, x1 = 0.4003): 22.42 mPa·s
viscosity (338.15 K, x1 = 0.6984): 13.14 mPa·s
viscosity (338.15 K, x1 = 0.7978): 11.64 mPa·s
viscosity (338.15 K, x1 = 0.8868): 10.49 mPa·s
viscosity (338.15 K, x1 = 1): 9.27 mPa·s
viscosity (343.15 K, x1 = 0.1018): 41.81 mPa·s
viscosity (343.15 K, x1 = 0.1952): 32.29 mPa·s
viscosity (343.15 K, x1 = 0.3029): 24.35 mPa·s
viscosity (343.15 K, x1 = 0.5989): 12.94 mPa·s
viscosity (343.15 K, x1 = 0.7978): 9.98 mPa·s
viscosity (343.15 K, x1 = 0.8868): 8.99 mPa·s
viscosity (343.15 K, x1 = 1): 7.91 mPa·s
viscosity (348.15 K, x1 = 0.1018): 34.84 mPa·s
viscosity (348.15 K, x1 = 0.1952): 27.23 mPa·s
viscosity (348.15 K, x1 = 0.3029): 20.77 mPa·s
viscosity (348.15 K, x1 = 0.4003): 16.43 mPa·s
viscosity (348.15 K, x1 = 0.4973): 13.36 mPa·s
viscosity (348.15 K, x1 = 0.6984): 9.74 mPa·s
viscosity (348.15 K, x1 = 0.7978): 8.63 mPa·s
viscosity (348.15 K, x1 = 0.8868): 7.76 mPa·s
viscosity (348.15 K, x1 = 1): 6.81 mPa·s
viscosity (353.15 K, x1 = 0.1018): 29.34 mPa·s
viscosity (353.15 K, x1 = 0.1952): 23.18 mPa·s
viscosity (353.15 K, x1 = 0.3029): 17.87 mPa·s
viscosity (353.15 K, x1 = 0.4003): 14.23 mPa·s
viscosity (353.15 K, x1 = 0.4973): 11.63 mPa·s
viscosity (353.15 K, x1 = 0.6984): 8.48 mPa·s
viscosity (353.15 K, x1 = 0.7978): 7.51 mPa·s
viscosity (353.15 K, x1 = 0.8868): 6.75 mPa·s
viscosity (353.15 K, x1 = 1): 5.9 mPa·s
viscosity (358.15 K, x1 = 0.1018): 24.95 mPa·s
viscosity (358.15 K, x1 = 0.1952): 19.9 mPa·s
viscosity (358.15 K, x1 = 0.3029): 15.5 mPa·s
viscosity (358.15 K, x1 = 0.4003): 12.43 mPa·s
viscosity (358.15 K, x1 = 0.4973): 10.19 mPa·s
viscosity (358.15 K, x1 = 0.5989): 8.56 mPa·s
viscosity (358.15 K, x1 = 0.6984): 7.44 mPa·s
viscosity (358.15 K, x1 = 0.7978): 6.58 mPa·s
viscosity (363.15 K, x1 = 0.1952): 17.23 mPa·s
viscosity (363.15 K, x1 = 0.3029): 13.54 mPa·s
viscosity (363.15 K, x1 = 0.4003): 10.92 mPa·s
viscosity (363.15 K, x1 = 0.4973): 8.99 mPa·s
viscosity (363.15 K, x1 = 0.5989): 7.56 mPa·s
viscosity (363.15 K, x1 = 0.7978): 5.81 mPa·s
viscosity (363.15 K, x1 = 0.8868): 5.2 mPa·s
viscosity (363.15 K, x1 = 1): 4.52 mPa·s
viscosity (368.15 K, x1 = 0.1018): 18.52 mPa·s
viscosity (368.15 K, x1 = 0.1952): 15.03 mPa·s
viscosity (368.15 K, x1 = 0.3029): 11.92 mPa·s
viscosity (368.15 K, x1 = 0.4003): 9.66 mPa·s
viscosity (368.15 K, x1 = 0.4973): 7.98 mPa·s
viscosity (368.15 K, x1 = 0.5989): 6.72 mPa·s
viscosity (368.15 K, x1 = 0.6984): 5.83 mPa·s
viscosity (368.15 K, x1 = 0.7978): 5.15 mPa·s
viscosity (368.15 K, x1 = 0.8868): 4.61 mPa·s
viscosity (368.15 K, x1 = 1): 3.99 mPa·s
viscosity (373.15 K, x1 = 0.1018): 16.15 mPa·s
viscosity (373.15 K, x1 = 0.1952): 13.21 mPa·s
viscosity (373.15 K, x1 = 0.3029): 10.55 mPa·s
viscosity (373.15 K, x1 = 0.4973): 7.12 mPa·s
viscosity (373.15 K, x1 = 0.5989): 6 mPa·s
viscosity (373.15 K, x1 = 0.6984): 5.2 mPa·s
viscosity (373.15 K, x1 = 0.7978): 4.59 mPa·s
viscosity (373.15 K, x1 = 0.8868): 4.1 mPa·s
